In patent US8969555B2, “Bicyclic pyrimidine compounds” (Eli Lilly and Company, priority 2013, dated 2015):

Legend:
[1] = target: T1, recombinant human autotaxin (Homo sapiens, UniProt Q13822); assay: Inhibition of Autotaxin as Measured by Choline Release; assay type: biochemical; details: LPC 16:0 30 μM, 37° C. 1 hour, arithmetic mean
T1 construct: full length human autotaxin with a C-terminal His tag transfected into 293E cells; His tag (C); made in house; host or cells: 293E cells

endogenous autotaxin = target: T2, endogenous autotaxin (Homo sapiens, UniProt Q13822); assay: Reduction of LPA in the Presence of Human Plasma; assay type: biochemical; details: 90% pooled human plasma, 3 hours at 37° C., total LPA by mass spec; arithmetic mean
T2 construct: The increased endogenous LPC levels are cleaved by endogenous autotaxin; tissue Lampire Biologicals; host or cells: pooled human plasma (healthy female donors, sodium heparin)

- IC50 [1]: 5.7 nM
- IC50 (endogenous autotaxin): 10 nM
Compound: O=C(COCCc1cnn[nH]1)N1CCc2nc(NC3Cc4ccccc4C3)ncc2C1 [Example 1 and 1a, 1-[2-(2,3-dihydro-1H-inden-2-ylamino)-7,8-dihydropyrido[4,3-d]pyrimidin-6(5H)-yl]-2-[2-(1H-1,2,3-triazol-4-yl)ethoxy]ethanone]
